We go through 13 compounds from PubChem BioAssay AID328 (DTP/NCI, 2004).

In the test the test system is BDF1 mice, P388 leukemia ip, median survival T/C. In words: NCI In Vivo Anticancer Drug Screen. Data for tumor model P388 Leukemia (intraperitoneal) in B6D2F1 (BDF1) mice. The conditions noted are these: endpoint: median survival time, higher = longer survival. In short, it runs like this: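 In tumour-bearing mice, survival after compound treatment is set against the vehicle group and given as a quotient.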

The mark [1] stands for this setting: dose: 50.0 mg/kg/injection, schedule: Q01DX009 (ip), vehicle: saline with Tween-80.
Setting [2] is: dose: 100.0 mg/kg/injection, schedule: Q01DX009 (ip), vehicle: saline with Tween-80.
[3] abbreviates: dose: 200.0 mg/kg/injection, schedule: Q01DX009 (ip), vehicle: saline with Tween-80.
[4] abbreviates: dose: 100.0 mg/kg/injection, schedule: Q04DX003 (ip), vehicle: saline with Tween-80.
The mark [5] stands for this setting: dose: 25.0 mg/kg/injection, schedule: Q01DX009 (ip), vehicle: saline with Tween-80.

Several values for one entry are separate records, joined by “and”; a condition that tells them apart may be missing. Equal entries are not always repeated. Inconclusive results and toxic doses are left out.

Turning to `COc1cc(O)c2c(c1)C(=O)c1cc3c(c(O)c1C2=O)C(OC1OC(C)C(OC)C(O)C1OC)C(OC)C(C)(O)C3=O` (stereo unspecified), the T/C is 86 % of control (dose: 17.5 mg/kg/injection, schedule: Q01DX009 (ip), vehicle: saline); 93 % of control (dose: 35.0 mg/kg/injection, schedule: Q01DX009 (ip), vehicle: saline); 97 % of control under setting [1]; 93 % of control (dose: 70.0 mg/kg/injection, schedule: Q01DX009 (ip), vehicle: saline); 120 % of control under setting [2]; 116 % of control under setting [3].

In the case of `CCCCOc1cc(C(=O)O)ccc1[N+](=O)[O-]`, the T/C is 100 % of control (dose: 25.0 mg/kg/injection, schedule: Q04DX003 (ip), vehicle: saline with Tween-80); 100 % of control (dose: 50.0 mg/kg/injection, schedule: Q04DX003 (ip), vehicle: saline with Tween-80); 104 % of control under setting [4].

As for `C[n+]1c(-c2ccc(Cl)cc2Cl)c2cc([N+](=O)[O-])ccc2c2ccccc21`, the T/C is 104 % of control (dose: 3.12 mg/kg/injection, schedule: Q01DX009 (ip), vehicle: water); 88 % of control and 104 % of control and 112 % of control (dose: 6.25 mg/kg/injection, schedule: Q01DX009 (ip), vehicle: water); 110 % of control and 119 % of control (dose: 12.5 mg/kg/injection, schedule: Q01DX009 (ip), vehicle: water); 104 % of control (2×) and 112 % of control (dose: 25.0 mg/kg/injection, schedule: Q01DX009 (ip), vehicle: water); 101 % of control (dose: 50.0 mg/kg/injection, schedule: Q01DX009 (ip), vehicle: water).

`CC1NC(=O)OC1C(C)(C)C` (stereo unspecified): the T/C runs as follows: (dose: 12.5 mg/kg/injection, schedule: Q01DX009 (ip), vehicle: saline with Tween-80) 88 % of control; under setting [5], 98 % of control; under setting [1], 86 % of control and 95 % of control.

As to `CC(=O)[C@H]1[C@H](C)C[C@H]2[C@@H]3CCC4=CC(=O)CC[C@]4(C)[C@@]3(F)[C@@H](O)C[C@@]21C`, the T/C was 105 % of control (dose: 100.0 mg/kg/injection, schedule: Q01DX009 (ip), vehicle: Klucel (hydroxypropylcellulose) (HPC)); 120 % of control (dose: 100.0 mg/kg/injection, schedule: Q04DX003 (ip), vehicle: alcohol); 115 % of control (dose: 132.0 mg/kg/injection, schedule: Q04DX003 (ip), vehicle: saline); 120 % of control (dose: 200.0 mg/kg/injection, schedule: Q01DX009 (ip), vehicle: Klucel (hydroxypropylcellulose) (HPC)); 104 % of control and 120 % of control (dose: 200.0 mg/kg/injection, schedule: Q04DX003 (ip), vehicle: saline); 110 % of control and 113 % of control (dose: 300.0 mg/kg/injection, schedule: Q04DX003 (ip), vehicle: saline). Moreover, the T/C is, setting by setting: (dose: 400.0 mg/kg/injection, schedule: Q01DX009 (ip), vehicle: Klucel (hydroxypropylcellulose) (HPC)) 120 % of control; (dose: 400.0 mg/kg/injection, schedule: Q04DX003 (ip), vehicle: alcohol) 105 % of control.

As to `CC(=O)CC(=O)c1ccccc1`, the T/C (dose: 100.0 mg/kg/injection, schedule: Q01DX001 (ip), vehicle: Klucel (hydroxypropylcellulose) (HPC)) was 112 % of control; the T/C (dose: 100.0 mg/kg/injection, schedule: Q04DX003 (ip), vehicle: Klucel (hydroxypropylcellulose) (HPC)) is 108 % of control; the T/C (dose: 200.0 mg/kg/injection, schedule: Q01DX001 (ip), vehicle: Klucel (hydroxypropylcellulose) (HPC)) is 95 % of control; the T/C (dose: 200.0 mg/kg/injection, schedule: Q04DX003 (ip), vehicle: Klucel (hydroxypropylcellulose) (HPC)) was 108 % of control; the T/C (dose: 400.0 mg/kg/injection, schedule: Q01DX001 (ip), vehicle: Klucel (hydroxypropylcellulose) (HPC)) was 91 % of control; the T/C (dose: 400.0 mg/kg/injection, schedule: Q04DX003 (ip), vehicle: Klucel (hydroxypropylcellulose) (HPC)) is 112 % of control.

For the compound `C[n+]1ccccc1/C=C/c1cccc([N+](=O)[O-])c1`, the T/C is, setting by setting: (dose: 5.0 mg/kg/injection, schedule: Q04DX003 (ip), vehicle: saline with Tween-80) 95 % of control; (dose: 10.0 mg/kg/injection, schedule: Q04DX003 (ip), vehicle: saline with Tween-80) 104 % of control; (dose: 20.0 mg/kg/injection, schedule: Q04DX003 (ip), vehicle: saline with Tween-80) 109 % of control.

Take `C1CC2CCCC3CC(B4OCCO4)CC(C1)C23` (stereo unspecified) (tested in a mixture with another compound): the T/C (dose: 100.0 mg/kg/injection, schedule: Q04DX003 (ip), vehicle: other) is 120 % of control; the T/C (dose: 200.0 mg/kg/injection, schedule: Q04DX003 (ip), vehicle: other) is 100 % of control; the T/C (dose: 400.0 mg/kg/injection, schedule: Q04DX003 (ip), vehicle: other) was 100 % of control.

With `C/C=C1\CN(C)[C@H]2Cc3c([nH]c4ccccc34)[C@@H](c3cc4[nH]c5c(c4cc3OC)CCN3C[C@H]4C[C@H](CC)[C@H]3[C@@]5(C(=O)OC)C4)C[C@H]1C2C(=O)OC` (stereo partly specified), the T/C was 90 % of control (dose: 5.0 mg/kg/injection, schedule: Q01DX010 (ip), vehicle: water); 109 % of control (dose: 10.0 mg/kg/injection, schedule: Q01DX010 (ip), vehicle: water); 118 % of control (dose: 20.0 mg/kg/injection, schedule: Q01DX010 (ip), vehicle: water).

Consider `O=P(Oc1cccc2ccccc12)(N1CC1)N1CC1`, for which the T/C runs as follows: under setting [2], 181 % of control; under setting [4], 122 % of control; (dose: 150.0 mg/kg/injection, schedule: Q01DX009 (ip), vehicle: saline with Tween-80) 231 % of control; (dose: 200.0 mg/kg/injection, schedule: Q04DX003 (ip), vehicle: saline with Tween-80) 150 % of control; (dose: 264.0 mg/kg/injection, schedule: Q04DX003 (ip), vehicle: saline with Tween-80) 200 % of control; (dose: 400.0 mg/kg/injection, schedule: Q04DX003 (ip), vehicle: saline with Tween-80) 181 % of control and 220 % of control.

As for `C[Si](C)(C)Nc1ncnc2c1ncn2[Si](C)(C)C`, under setting [2], the T/C was 91 % of control.

As for `CC(C)NCc1ccccc1Sc1ccccc1`, the T/C (dose: 100.0 mg/kg/injection, schedule: Q01DX001 (ip), vehicle: saline with Tween-80) was 101 % of control.

Consider `O=C(O)C1CSC(c2ccccc2)N1` (stereo unspecified), for which the T/C was 111 % of control under setting [5], 109 % of control under setting [2] and 100 % of control under setting [3].
